Values quoted from earlier work as cited in paper PMC9301717 (ACS Omega, 2022).

Key:
IDE [1] = tested on: IDE
IDE [2] = tested on: IDE; remark: listed apart in the source

effect on the enzyme's ability to degrade insulin (IDE [2]): has no effect
Compound: Oc1ccc(/C=C/c2cc(O)cc(O)c2)cc1 [resveratrol]
effect on IDE's activity toward Aβ42 (IDE [1]): sustains
